{
  "source": "patent US4690920A",
  "about": "“Derivative of cephalosporanic acid and pharmaceutical composition comprising the same” (Kureha Kagaku Kogyo Kabushiki Kaisha, priority 1982, dated 1987)",
  "key": {"[1]": {"system": "Escherichia coli IFO 12734", "experiment": "Anti-bacterial activity, agar plate dilution method (MIC), Escherichia coli", "assay_type": "cell-based", "details": "Mueller-Hinton agar, 18 to 24 hours, 37° C.", "description": "(§1) 3-1: The minimum growth-inhibiting concentration (MIC) of each of the compounds represented by the formula (I) was measured according to the standard procedures of Japan Society of Chemotherapy against each of the following bacterial species:\nEscherichia coli, IFO 12734 and\n(§2) Anti-bacterial activity of each of the compounds produced in Examples 1 to 6 was measured according to the standard procedures of Japan Society of Chemotherapy in agar plate dilution method as follows:\n(§3) As a test bacterial species, Escherichia coli IFO 12734 and Staphylococcus aureus IAM 1011, and each strain was inoculated into Mueller-Hinton's culture medium for 18 to 48 hours at 37° C., and while using the thus cultured bacteria, each of the test bacterial liquid containing 10^6 cells in one ml was prepared.\n(§4) Separately, after preparing each series of diluted aqueous solutions of each of the compounds produced in Examples 1 to 6, respectively, each of them was mixed in amount of 1/9 time by weight with the Mueller-Hinton's culture medium and each flat agar culture plate was prepared by using the thus formed mixture."}, "[2]": {"system": "A species of Lactobacillus", "experiment": "Effect on the intestinal bacterial colonies: number of a species of Lactobacillus in feces", "assay_type": "in vivo, Lactobacillus (feces of female ICR mice)", "details": "oral, 500 mg/kg/day for 2 days; feces one day after administration; before administration 9.0", "description": "(§5) After collecting the feces of a group of mice, each of the compounds represented by the formula (I) was orally administered to each of the group for 2 continued days at a daily dose rate of 500 mg per kg body weight, and the feces were again collected one day after the administration. Each portion of the thus collected, two kinds of the feces was cultured at 25° C. or 37° C. in a variety of culture media for one to five days to see the state of growth of the following bacteria which are present habitually in the intestine of the mouse: Escherichia coli, Pseudomonas aeruginosa, a streptococcus bacterial species, a lactobacillis bacteria, Lactobacillus bifidus and a bacterioides bacteria.\n(§6) Each of the compounds, respectively produced in Examples 1 to 6 was orally administered for two continued days at a daily dosage of 500 mg/kg body weight to each of five female ICR mice of a group after 6 weeks of birth.\n(§7) Each of the two fecal specimens respectively collected before and after one day of the administration was diluted with 100 times by weight of an anaerobic diluent (a phosphoric buffer solution) and was ground in a mortar, and 0.1 ml of the ground material was smeared on each of the following culture media for the following bacteria and the thus inoculated culture media were incubated under the following conditions. Thereafter, the number of the following bacteria was determined on each culture medium.\na species of LBS agar 37° C., for 5 days, […]"}, "[3]": {"system": "Pseudomonas aeruginosa", "experiment": "Effect on the intestinal bacterial colonies: number of Pseudomonas aeruginosa in feces", "assay_type": "in vivo, Pseudomonas aeruginosa (feces of female ICR mice)", "details": "oral, 500 mg/kg/day for 2 days; feces one day after administration; before administration <3.0", "description": "as §5, §6, §7\nNAC agar 37° C., for 1 day, […]"}, "[4]": {"system": "Escherichia coli IFO 12734", "experiment": "Effectiveness in treating experimental infectious disease, Escherichia coli", "assay_type": "in vivo, mice (ddY-SPF) infected with Escherichia coli", "details": "of 20 mice; 1.4×10^8 cells i.p.; 500 mg/kg orally two times, just after and after 4 hours; all untreated died on second day", "description": "(§8) Each of 20 mice of a group was infected by intraperitoneal inoculation of Escherichia coli IFO 12734 or Staphylococcus aureus IAM 1011, and just after or after 4 hours of the inoculation, each of the compounds represented by the formula (I) was orally administered to the inoculated mouse at a dose rate of 500 mg/kg body weight.\n(§9) Cells in number of 1.4×10^8 of Escherichia coli IFO 12734 were intraperitoneally inoculated to each of 40 ddY-SPF mice, and each of 20 mice of the 40 mice was administered two times just after and after 4 hours of the inoculation with each 500 mg of the compound produced in Example 4 per kg of body weight orally, and the other 20 mice were kept untreated."}, "[5]": {"system": "Staphylococcus aureus IAM 1011", "experiment": "Model test for verifying the activation in living body: growth-inhibition circle with/without rat liver S-9 mix", "assay_type": "cell-based", "details": "20 min at 37° C., then 18 hours at 37° C.; for Sign: diameter of growth-inhibiting circle as percentage of that due to compound of formula (II), with the addition of S-9 mix: with the addition of S-9 mix (rat liver homogenate)", "description": "On each flat culture plate prepared by adding 10^8 cells/ml of a preliminarily cultured Staphylococcus aureus IAM 1011 into 50 times by weight of Mueller-Hinton's agar culture medium, a penicillin cup of 8 mm in diameter was placed, and into each cup 0.1 ml of each of the compounds represented by the formula (I) or 0.1 ml of a cultured product of each of the compounds represented by the formula (I) together with a rat liver homogenate (containing a metabolism-activating enzyme, referred to as S-9 mix) was introduced. The diameter of each growth-inhibition circle formed around the cup after incubating the flat culture plate with the cup for 18 hours at 37° C. was measured, and the thus obtained value was compared to the value obtained by the same procedures except for using the compound represented by the formula (II), the starting compound instead of each of the compounds represented by the formula (I).\nAs a metabolism-activating enzyme, a rat liver homogenate (S-9, manufactured by Oriental Yeast Co.) was used in the following composition (referred to as S-9 mix, hereinafter):\nAfter mixing 0.1 ml of a solution of the compound to be tested with 0.9 ml of S-9 mix or 0.9 ml of 0.1M phosphoric acid buffer solution, the mixture was subjected to shaking culture for 20 min at 37° C. to prepare a test reaction solution for use in the following experiment.\nStaphylococcus aureus IAM 1011 was inoculated to Mueller-Hinton's culture medium and the inoculum was cultured for 18 hours at 37° C. and after adjusting the number of the bacterial cells to 10^8 /ml of the culture medium, 50 times by weight of the Mueller-Hinton's agar culture medium were added to the cultured medium to prepare flat culture plates.\nAfter placing a penicillin-cup of 8 mm in diameter on each of the thus prepared flat culture plates, 0.1 ml of the above-mentioned test reaction solution was introduced into the penicillin-cup, and after leaving the system for 2 hours at 4° C., the system was incubated for 18 hour at 37° C., and the diameter of the growth-inhibition circle around the cup on the culture plate was determined.\nThe thus obtained diameter of the growth-inhibiting circle due to each of the compounds produced respectively in Examples 1 to 6 was compared to that due to the compound repesente by the formula (II), substituted cephalosporanic acid by percentage, and the following signs were respectively given to the respective compounds as follows: […]"}, "[6]": {"system": "Staphylococcus aureus IAM 1011", "experiment": "Effectiveness in treating experimental infectious disease, Staphylococcus aureus", "assay_type": "in vivo, mice (ddY-SPF) infected with Staphylococcus aureus", "details": "of 20 mice; 2.3×10^8 cells i.p.; 500 mg/kg orally two times; all untreated died on second day", "description": "as §8, §9\nQuite the same experiments as in (10-1) except for intraperitoneously inoculating Staphylococcus aureus IAM 1011 in number of 2.3×10^8instead of 1.4×10^8 cells of E. coli was carried out by administering two times with each 500 mg of the compound produced in Example 4. As a result, all the 20 mice inoculated and not administered died on the second day of inoculation, however, more than 70% of the inoculated and administered 20 mice were alive even on the 7th day of inoculation."}, "[7]": {"system": "Staphylococcus aureus IAM 1011", "experiment": "Anti-bacterial activity, agar plate dilution method (MIC), Staphylococcus aureus", "assay_type": "cell-based", "details": "Mueller-Hinton agar, 18 to 24 hours, 37° C.", "description": "as §1\nStaphylococcus aureus, IAM 1011\nas §2, §3, §4"}, "[8]": {"system": "Escherichia coli", "experiment": "Effect on the intestinal bacterial colonies: number of Escherichia coli in feces", "assay_type": "in vivo, Escherichia coli (feces of female ICR mice)", "details": "oral, 500 mg/kg/day for 2 days; feces one day after administration; before administration 7.0", "description": "as §5, §6, §7\nDHL agar 37° C., for 1 day, […]"}, "[9]": {"system": "Lactobacillus bifidus", "experiment": "Effect on the intestinal bacterial colonies: number of Lactobacillus bifidus in feces", "assay_type": "in vivo, Lactobacillus bifidus (feces of female ICR mice)", "details": "oral, 500 mg/kg/day for 2 days; feces one day after administration; before administration 8.0", "description": "as §5, §6, §7\nBS agar 37° C., for 5 days, […]"}, "[10]": {"system": "A species of Bacterioides", "experiment": "Effect on the intestinal bacterial colonies: number of a species of Bacterioides in feces", "assay_type": "in vivo, Bacteroides (feces of female ICR mice)", "details": "oral, 500 mg/kg/day for 2 days; feces one day after administration; before administration 8.1", "description": "as §5, §6, §7\na species of NBGT agar 37° C., for 5 days,7 -Bacteroides anaer"}, "[11]": {"system": "A species of Streptococcus", "experiment": "Effect on the intestinal bacterial colonies: number of a species of Streptococcus in feces", "assay_type": "in vivo, Streptococcus (feces of female ICR mice)", "details": "oral, 500 mg/kg/day for 2 days; feces one day after administration; before administration 6.4", "description": "as §5, §6, §7\na species of TATAC agar 37° C., for 1 day, […]"}},
  "data": [
    {"smiles": "COC(=O)CNC(=O)c1ccc(NC(=O)C2=C(CSc3nnnn3C)CSC3N2C(=O)C3(NC(=O)CSCC#N)OC)cc1", "note": "(stereo not drawn) [Example 4, N-(4-carbomethoxymethylcarbamoylphenyl)-{7-beta-cyanomethylthioacetamido-7-alpha-methoxy-3-[(1-methyl-1H-tetrazol-5-yl)thio]methyl-3-cepheme-4-carboxylic}amide]", "values": [
      {"measurement": "Minimum concentration of inhibiting growth of Escherichia coli (MIC)", "setting": "[1]", "value": "≥ 100", "unit": "microgram/ml"},
      {"measurement": "Log10 value of the number of bacterial cells/g of feces, a species of Lactobacillus", "setting": "[2]", "value": "9.3 Log10 cells/g of feces"},
      {"measurement": "Log10 value of the number of bacterial cells/g of feces, Pseudomonas aeruginosa", "setting": "[3]", "value": "< 3.0 Log10 cells/g of feces"},
      {"measurement": "mice alive on the 7th day of inoculation", "setting": "[4]", "value": "more than 16 mice"},
      {"measurement": "Sign: diameter of growth-inhibiting circle as percentage of that due to compound of formula (II), with the addition of S-9 mix", "setting": "[5]", "value": "+ (1 to 33)"},
      {"measurement": "Sign: diameter of growth-inhibiting circle as percentage of that due to compound of formula (II), without adding S-9 mix", "setting": "[5]", "value": "- (0)"},
      {"measurement": "inoculated and administered mice alive on the 7th day of inoculation", "setting": "[6]", "value": "more than 70%"},
      {"measurement": "Minimum concentration of inhibiting growth of Staphylococcus aureus (MIC)", "setting": "[7]", "value": "≥ 100", "unit": "microgram/ml"},
      {"measurement": "Log10 value of the number of bacterial cells/g of feces, Escherichia coli", "setting": "[8]", "value": "7.0 Log10 cells/g of feces"},
      {"measurement": "Log10 value of the number of bacterial cells/g of feces, Lactobacillus bifidus", "setting": "[9]", "value": "7.9 Log10 cells/g of feces"},
      {"measurement": "Log10 value of the number of bacterial cells/g of feces, a species of Bacterioides", "setting": "[10]", "value": "8.3 Log10 cells/g of feces"},
      {"measurement": "Log10 value of the number of bacterial cells/g of feces, a species of Streptococcus", "setting": "[11]", "value": "5.9 Log10 cells/g of feces"}
    ]},
    {"smiles": "COC1(NC(=O)CSCC#N)C(=O)N2C(C(=O)Nc3ccc(C)cc3)=C(CSc3nnnn3C)CSC21", "note": "(stereo not drawn) [Example 6, N-(4-methylphenyl)-{7-beta-cyanomethylthioacetamido-7-alpha-methoxy-3-[(1-methyl-1H-tetrazol-5-yl)thio]methyl-3-cepheme-4-carboxylic}amide]", "values": [
      {"measurement": "Minimum concentration of inhibiting growth of Escherichia coli (MIC)", "setting": "[1]", "value": "≥ 100", "unit": "microgram/ml"},
      {"measurement": "Log10 value of the number of bacterial cells/g of feces, a species of Lactobacillus", "setting": "[2]", "value": "9.2 Log10 cells/g of feces"},
      {"measurement": "Log10 value of the number of bacterial cells/g of feces, Pseudomonas aeruginosa", "setting": "[3]", "value": "< 3.0 Log10 cells/g of feces"},
      {"measurement": "Sign: diameter of growth-inhibiting circle as percentage of that due to compound of formula (II), with the addition of S-9 mix", "setting": "[5]", "value": "+ (1 to 33)"},
      {"measurement": "Sign: diameter of growth-inhibiting circle as percentage of that due to compound of formula (II), without adding S-9 mix", "setting": "[5]", "value": "- (0)"},
      {"measurement": "Minimum concentration of inhibiting growth of Staphylococcus aureus (MIC)", "setting": "[7]", "value": "≥ 100", "unit": "microgram/ml"},
      {"measurement": "Log10 value of the number of bacterial cells/g of feces, Escherichia coli", "setting": "[8]", "value": "6.9 Log10 cells/g of feces"},
      {"measurement": "Log10 value of the number of bacterial cells/g of feces, Lactobacillus bifidus", "setting": "[9]", "value": "8.0 Log10 cells/g of feces"},
      {"measurement": "Log10 value of the number of bacterial cells/g of feces, a species of Bacterioides", "setting": "[10]", "value": "8.0 Log10 cells/g of feces"},
      {"measurement": "Log10 value of the number of bacterial cells/g of feces, a species of Streptococcus", "setting": "[11]", "value": "6.3 Log10 cells/g of feces"}
    ]}
  ]
}
